Measured values published in paper PMC3265371 (Nature Communications, 2011).
Where two headings read alike, the source gives them in different places.

Columns and labels:
[1] = molecular target: T1, CNGA1 (homomeric channel) (Bos taurus, UniProt Q00194); assay: inside-out patch clamp, activated current; format: biochemical; conditions: 2.5 mM cGMP, ±60 mV, pH 7.2; activation, saturating
T1 sequence (Q00194 1-690): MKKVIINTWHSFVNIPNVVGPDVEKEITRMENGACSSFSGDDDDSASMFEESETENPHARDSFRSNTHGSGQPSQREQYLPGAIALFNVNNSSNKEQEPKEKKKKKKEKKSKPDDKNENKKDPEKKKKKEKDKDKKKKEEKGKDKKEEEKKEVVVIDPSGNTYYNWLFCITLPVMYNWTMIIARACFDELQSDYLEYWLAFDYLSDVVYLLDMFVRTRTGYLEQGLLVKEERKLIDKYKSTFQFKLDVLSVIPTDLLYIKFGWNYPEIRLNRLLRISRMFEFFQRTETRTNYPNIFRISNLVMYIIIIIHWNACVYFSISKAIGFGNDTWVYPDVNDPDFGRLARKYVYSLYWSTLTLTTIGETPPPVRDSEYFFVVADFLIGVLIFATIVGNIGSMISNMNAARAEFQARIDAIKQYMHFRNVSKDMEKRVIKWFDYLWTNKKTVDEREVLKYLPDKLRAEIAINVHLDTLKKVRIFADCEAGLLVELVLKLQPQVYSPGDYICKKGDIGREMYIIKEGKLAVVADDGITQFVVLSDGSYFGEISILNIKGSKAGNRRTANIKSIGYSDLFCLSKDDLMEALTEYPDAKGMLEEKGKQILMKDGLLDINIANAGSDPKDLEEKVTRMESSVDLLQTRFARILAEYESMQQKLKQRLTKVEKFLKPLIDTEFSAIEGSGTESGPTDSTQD

[2] = molecular target: CNGA1+CNGB1 (heteromeric rod CNG channel) (Bos taurus, UniProt Q00194+Q28181); assay: inside-out patch clamp, block of cGMP-activated current; format: cell-based
Chain of CNGA1+CNGB1 (heteromeric rod CNG channel) (Q28181 whole entry, one chain of several): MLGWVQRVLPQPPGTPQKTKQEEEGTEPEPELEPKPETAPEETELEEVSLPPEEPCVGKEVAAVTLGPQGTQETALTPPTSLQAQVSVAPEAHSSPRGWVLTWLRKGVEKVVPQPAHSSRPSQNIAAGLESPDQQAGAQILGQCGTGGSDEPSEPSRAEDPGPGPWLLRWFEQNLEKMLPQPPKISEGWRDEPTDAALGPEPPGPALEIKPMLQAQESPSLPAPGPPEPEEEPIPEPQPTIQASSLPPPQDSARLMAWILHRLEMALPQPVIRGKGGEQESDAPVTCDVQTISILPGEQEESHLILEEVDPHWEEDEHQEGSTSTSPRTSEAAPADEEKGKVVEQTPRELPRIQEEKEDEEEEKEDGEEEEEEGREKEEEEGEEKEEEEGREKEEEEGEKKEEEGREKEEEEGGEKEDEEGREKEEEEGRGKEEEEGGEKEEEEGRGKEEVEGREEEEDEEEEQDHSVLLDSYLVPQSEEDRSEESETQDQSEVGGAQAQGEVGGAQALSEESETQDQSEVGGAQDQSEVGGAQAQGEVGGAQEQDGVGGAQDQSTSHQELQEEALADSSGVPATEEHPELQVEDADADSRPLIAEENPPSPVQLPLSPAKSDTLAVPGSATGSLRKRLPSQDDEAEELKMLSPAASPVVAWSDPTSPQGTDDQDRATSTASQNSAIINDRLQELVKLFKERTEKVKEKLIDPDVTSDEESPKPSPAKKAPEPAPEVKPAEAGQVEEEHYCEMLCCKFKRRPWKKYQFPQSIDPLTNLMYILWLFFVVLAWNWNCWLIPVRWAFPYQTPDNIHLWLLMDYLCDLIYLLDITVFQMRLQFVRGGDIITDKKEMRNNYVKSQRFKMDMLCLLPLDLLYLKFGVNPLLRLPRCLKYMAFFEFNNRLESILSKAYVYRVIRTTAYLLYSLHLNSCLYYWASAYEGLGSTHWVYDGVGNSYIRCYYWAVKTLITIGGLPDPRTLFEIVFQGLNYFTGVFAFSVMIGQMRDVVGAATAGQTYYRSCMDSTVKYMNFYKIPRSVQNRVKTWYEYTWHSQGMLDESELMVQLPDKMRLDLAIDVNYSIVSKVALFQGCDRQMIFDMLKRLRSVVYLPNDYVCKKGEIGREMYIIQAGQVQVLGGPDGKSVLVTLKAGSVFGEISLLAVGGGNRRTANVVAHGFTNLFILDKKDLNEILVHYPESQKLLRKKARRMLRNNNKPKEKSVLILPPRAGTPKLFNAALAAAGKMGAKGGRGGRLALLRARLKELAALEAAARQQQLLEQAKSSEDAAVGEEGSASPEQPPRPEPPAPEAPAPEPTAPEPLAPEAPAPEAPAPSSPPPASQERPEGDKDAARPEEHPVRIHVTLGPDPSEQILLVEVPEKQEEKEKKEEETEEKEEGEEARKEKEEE

[3] = molecular target: T1, CNGA1 (homomeric channel); assay: as above; format: cell-based
[4] = molecular target: T2, CNGA1-ΔCLZ (homomeric channel) (Bos taurus, UniProt Q00194, DEL609-693); assay: as above; format: cell-based
T2 sequence (Q00194 1-608): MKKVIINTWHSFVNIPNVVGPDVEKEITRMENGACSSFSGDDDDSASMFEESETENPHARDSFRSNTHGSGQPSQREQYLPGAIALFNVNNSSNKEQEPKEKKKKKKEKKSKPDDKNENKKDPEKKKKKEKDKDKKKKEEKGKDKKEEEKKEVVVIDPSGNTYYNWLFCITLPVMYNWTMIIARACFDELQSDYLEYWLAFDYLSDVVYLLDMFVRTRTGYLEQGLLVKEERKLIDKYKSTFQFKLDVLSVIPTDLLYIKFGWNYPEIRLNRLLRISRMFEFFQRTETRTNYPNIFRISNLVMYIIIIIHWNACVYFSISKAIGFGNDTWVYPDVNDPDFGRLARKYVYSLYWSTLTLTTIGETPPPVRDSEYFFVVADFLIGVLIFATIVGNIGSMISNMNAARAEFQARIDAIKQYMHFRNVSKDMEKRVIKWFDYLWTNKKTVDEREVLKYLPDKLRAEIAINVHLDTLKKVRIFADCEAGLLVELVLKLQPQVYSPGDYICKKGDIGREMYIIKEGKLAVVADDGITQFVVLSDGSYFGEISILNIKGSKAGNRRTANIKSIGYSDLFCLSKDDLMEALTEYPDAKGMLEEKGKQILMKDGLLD

CNGA1+CNGB1-ΔN = CNGA1+CNGB1-ΔN (Bos taurus, UniProt Q00194+Q28181, DEL2-765); assay: as above; format: cell-based
Chain of CNGA1+CNGB1-ΔN (Q28181 766-1394, stated change not applied, one chain of several): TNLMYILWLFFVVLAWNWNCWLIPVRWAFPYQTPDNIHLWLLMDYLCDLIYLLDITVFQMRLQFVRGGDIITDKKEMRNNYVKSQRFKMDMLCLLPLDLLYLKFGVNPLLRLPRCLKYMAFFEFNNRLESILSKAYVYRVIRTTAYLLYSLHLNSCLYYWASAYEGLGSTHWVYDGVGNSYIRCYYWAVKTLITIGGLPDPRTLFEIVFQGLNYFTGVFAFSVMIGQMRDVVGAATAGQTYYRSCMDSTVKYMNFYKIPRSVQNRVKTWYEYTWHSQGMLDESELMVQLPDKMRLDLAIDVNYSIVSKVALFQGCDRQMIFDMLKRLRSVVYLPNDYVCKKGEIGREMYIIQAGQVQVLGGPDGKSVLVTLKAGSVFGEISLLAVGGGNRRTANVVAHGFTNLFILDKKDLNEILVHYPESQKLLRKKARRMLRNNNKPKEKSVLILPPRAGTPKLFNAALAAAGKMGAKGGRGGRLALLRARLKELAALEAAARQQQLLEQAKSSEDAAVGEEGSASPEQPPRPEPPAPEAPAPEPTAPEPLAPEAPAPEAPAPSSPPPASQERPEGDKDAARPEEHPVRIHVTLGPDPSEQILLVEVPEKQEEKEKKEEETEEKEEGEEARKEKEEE

SEC-MALS = molecular target: the molecule itself; assay: SEC-MALS
[5] = molecular target: the molecule itself

Nc1nc2c(ncn2[C@@H]2O[C@@H]3COP(=O)(O)O[C@H]3[C@H]2O)c(=O)[nH]1 [cGMP]
inside-out patch clamp, activated current [1]: Homomeric channels of CNGA1 subunits are efficiently activated by saturating cGMP

COc1ccc([C@H]2Sc3ccccc3N(CCN(C)C)C(=O)[C@H]2OC(C)=O)cc1 [L-cis-diltiazem]
IC50 [2]: 2.45 ± 0.28 µM
IC50 [3]: 174 ± 7.2 µM
IC50 [4]: 164 ± 8.2 µM
IC50 (CNGA1+CNGB1-ΔN): 1.4 ± 0.21 µM

B1: CNGA1#621–690 (domain or fragment, bovine, UniProt Q00194 621-690, looked up)
chain: LEEKVTRMESSVDLLQTRFARILAEYESMQQKLKQRLTKVEKFLKPLIDTEFSAIEGSGTESGPTDSTQD
stoichiometry N (SEC-MALS): 3

B2: CNGA3#626–694 (domain or fragment, human, UniProt Q16281 626-694, looked up)
chain: LEEKVEQLGSSLDTLQTRFARLLAEYNATQMKMKQRLSQLESQVKGGGDKPLADGEVPGDATKTEDKQQ
stoichiometry N (SEC-MALS): 3

LEEKVTRMESSVDLLQTRFARILAEYESMQQKLKQRLTKVEKFLKPL (domain or fragment, bovine, UniProt Q00194 621-667, looked up) [CNGA1#621–667]
stoichiometry N [5]: 3

LEEKVEQLGSSLDTLQTRFARLLAEYNATQMKMKQRLSQLESQVKGG (domain or fragment, human, UniProt Q16281 626-672, looked up) [CNGA3#626–672]
stoichiometry N [5]: 3
